Data as given in paper PMC10861593, “Kisspeptin-10 binding to Gpr54 in osteoclasts prevents bone loss by activating Dusp18-mediated dephosphorylation of Src” (Nature Communications, 2024).
Substitutions are numbered along the chain they refer to. Names and notes keep the numbering of the source.

B1: mouse Gpr54^336–342 peptide (peptide, UniProt Q91V45 336-342, looked up)
peptide: RVCPCCR
notes: mouse Gpr54 (Kiss1 receptor), residues 336-342, said to correspond to the RxxPxxR motif; also called peptide of Gpr54^336–342 (RxxPxxR motif); source: synthetic peptide
B2: His-DUSP18 (enzyme, human, UniProt Q8NEJ0 1-188, looked up)
chain: MTAPSCAFPVQFRQPSVSGLSQITKSLYISNGVAANNKLMLSSNQITMVINVSVEVVNTLYEDIQYMQVPVADSPNSRLCDFFDPIADHIHSVEMKQGRTLLHCAAGVSRSAALCLAYLMKYHAMSLLDAHTWTKSCRPIIRPNSGFWEQLIHYEFQLFGKNTVHMVSSPVGMIPDIYEKEVRLMIPL
notes: full-length WT human DUSP18, in pMCSG7; In the SPR it is called 'DUSP18 protein'; removal of the tag is not mentioned; also called DUSP18 protein; WT-DUSP18; source: E. coli, purified; not shown: His, N-terminal, kept
B3: DUSP18 (C104S): enzymatically dead DUSP18 (C104S) mutant (protein)
chain: B2 chain with C104S
modifications: left off: Flag, C-terminal, kept
notes: enzymatically dead DUSP18 (C104S) mutant

Key:
GPR54 / Src interaction = experiment: Co-IP: interaction of GPR54 with Src in transfected 293T cells; type: cell-based, human; conditions: inhibitor 1 h (U73122 10 µM, Staurosporine 0.25 µM, LY3214996 10 µM, KN-93 10 µM, Saracatinib 10 µM), then 10 nM Kp-10 20 min
Method: (§1) Data represent means ± SEM. P values were determined by one-way ANOVA analysis (b, c, e, g, i, k). Representative results were obtained from at least three independent experiments. Source data are provided as a Source Data file.
(§2) Whole-cell proteins were extracted using 1x RIPA buffer (25 mM Tris, pH7.5, 150 mM NaCl, 0.5% Sodium deoxycholate, 1% Triton-X-100) supplemented with protease inhibitors (Complete Mini, Roche) and phosphatase inhibitors (phosphatase inhibitor cocktail set I and II, Calbiochem). Immunoprecipitation and immunoblotting with indicated antibodies were performed as described in Supplementary Table 1. Image Jsoftware (V1.52) was used for quantification analysis. Uncropped and unprocessed blots are presented in the Supplementary Information file.
Error bars are ± SEM. […] Source data are provided as a Source Data file.

Dusp18 expression = experiment: qPCR of Dusp18 mRNA in RAW264.7 cells; type: cell-based, mouse; conditions: U73122 10 µM, Staurosporine 0.25 µM, LY3214996 20 µM, SB203580 10 µM for 1 h, then Kp-10 30 min
Text: Anti-Flag IP of lysates derived from 293 T cells transfected with GPR54-flag and Src-HA constructs (d) and quantification results (e). Anti-Flag IP of lysates derived from 293 T cells transfected with GPR54-flag and DUSP18-HA constructs (f) and quantification results (g). Anti-Flag IP of lysates derived from 293 T cells transfected with Src-HA, and DUSP18-flag constructs (h) and quantification results (i). j, k IB analysis of lysates derived from WT BMMs and Gq/11 KO BMMs with or without Kp-10 treatment for 1 h (j) and quantification of results (k). l Working model of Kp-10 /Gpr54 mediated Src dephosphorylation. […] However, both active Src and DUSP18 were recruited by GPR54 through the PR motif in GPR54 CT along with the increase of Kp-10 dose (1, 10 nM). […] Data represent means ± SEM. P values were determined by one-way ANOVA analysis (b, c, e, g, i, k). Representative results were obtained from at least three independent experiments. Source data are provided as a Source Data file.
Total RNA was extracted from RAW264.7 cells using TRIzol® (TaKaRa) and then reverse transcribed into cDNA using the PrimeScript RT-PCR Kit (TaKaRa, RR014) according to the manufacturer’s instructions. The cDNA products were used for quantitative PCR analysis by SYBR Mix (TaKaRa, RR064). Sequences of the indicated primers are described in Supplementary Table 2.

[1] = test system: DUSP18 / GPR54 interaction; experiment: Co-IP: interaction of DUSP18 with GPR54 in transfected 293T cells; type: cell-based, human; conditions: 293T; inhibitor 1 h (U73122 10 µM, Staurosporine 0.25 µM, LY3214996 10 µM, KN-93 10 µM, Saracatinib 10 µM), then 10 nM Kp-10 20 min
Method: as §1, §2
Supplementary Fig. 6 a, b IB and quantification of protein levels analysis. […] Error bars are ± SEM. P-values were determined by two-tailed Student’s t-test (b, e) or by one-way ANOVA analysis (h, j). *P <0.05, **P <0.01, ***P <0.001, ****P <0.0001. Representative results were observed from at least three independent experiments. Source data are provided as a Source Data file.

Src / DUSP18 interaction = experiment: Co-IP/IB: interaction of Src with DUSP18 in transfected 293T cells; type: cell-based
Method: Anti-Flag IP derived from 293 T cells transfected with HA-Src and either DUSP18-Flag or DUSP18 (C104S)-Flag constructs with or without Kp-10 treatment for 20 min were lysed and subjected to anti-FLAG IP (b). Phosphatase reaction products using His-DUSP18 and His-DUSP18 (C104S) proteins purified from E. coli and SRC proteins purified from Sf9 insect cells (c) and quantification of protein levels (d). Anti-Src IP derived from RAW264.7 cells treated with or without Kp-10 treatment for 20 min were lysed and subjected to anti-Src IP (e) and quantification of protein levels (f). g, h Src and Dusp18 co-localization was analyzed by IF staining in primary pre-osteoclasts treated with 10 nM Kp-10 treatment for 20 min. Representative images of endogenous Dusp18 and Src were shown by TIRF microscopy (g), and MOC was used to quantify the degree of colocalization in cells from multiple images taken randomly (h). Scale bar, 50 µm. i–m IB and quantification of protein levels analysis. Anti-Flag IP derived from 293 T cells transfected with HA-Src, GPR54-myc, and either DUSP18-Flag or DUSP18 (C104S)-Flag constructs after Kp-10 treatment for 20 min (i) and quantification of protein levels (j, k). […] Scale bars, 125 µm (n), and pits depth were quantified by confocal microscopy (o). […] P values were determined by one-way ANOVA analysis (d, f, j, k, m, o) or by two-tailed Student’s t-test (h). […]

SH3 domain of Src = experiment: SH3 domain protein-binding array; conditions: TranSignal SH3 Domain Array, GST-GPR54 CT overnight at 4 °C
Method: SH3 domain protein-binding array was performed using TranSignal™ SH3 Domain Array kit (Cat. #MA3010). The kit was purchased from Panomics, and probed using GST-GPR54 CT. Purified different SH3 domain-containing proteins including the Src kinase family were spotted in duplicate on the membrane filter and tested for their binding to GST-GPR54 CT. Briefly, membrane filters were incubated with […] GST-GPR54 CT protein overnight at 4 °C. After washing the membrane, the GST antibody was incubated overnight at 4 °C. Protein binding was visualized by incubation with an HRP-conjugated antibody. Spots with stronger intensities indicated a higher binding affinity of GST-GPR54 CT with the SH3 domain-containing protein (s). SH3 domain proteins in the array were summarized in Supplementary Table 3.

His-DUSP18 = molecular target: B2; experiment: SPR; Biacore T200, DUSP18 protein immobilised on CM5 by amine coupling (25 ug/mL, pH 7.4, PBS); 25 °C, 30 µl/minute, PBS with 0.05% Tween-20; kinetics analysis, 1:1 model; conditions: both partners purified
[2] = molecular target: T1, His-SRC protein, Src (G85-L536) (human, UniProt P12931 85-536); experiment: SPR; Biacore T200, DUSP18 and Src; which of the two was immobilised is not told; 25 °C, 30 µl/minute, PBS with 0.05% Tween-20; kinetics analysis, 1:1 model; conditions: both partners purified
T1 construct: human Src, G85-L536, in pFastBac HT B; In the SPR it is called 'SRC protein'; removal of the tag is not mentioned; source: Sf9 (Bac-to-Bac baculovirus), purified; not shown: His6, N-terminal, kept

Src (Y416) = experiment: in vitro phosphatase activity assay with Src; type: biochemical, human; conditions: purified proteins; 30 min at 30 °C; Western blot
Method: The C terminus of human GPR54 (H329- L398) and mouse Gpr54 (R331- L396) cDNAs were subcloned into a pGEX-4T2 vector. For purification of full-length WT human DUSP18 and DUSP18 (C104S) proteins, DUSP18 was cloned into pMCSG7 vector. For purification of Src (G85-L536) protein, cDNAs of human Src were subcloned into pFastBac HT B vector with an N-terminal 6xHis tag and expressed in Sf9 cells (Expression Systems) using the Bac-to-Bac Baculovirus Expression System (Invitrogen) for 48 h. For purification of the Src (G85-V247)-GPR54 (333–356 with C338S, C340S mutation) recombinant fusion protein, the C-terminus of GPR54 (333–356 with C338S and C340S mutation) was linked to the C terminus of Src SH3-SH2 domain (G85-V247), which was subcloned into the pMCSG7 vector.
For the total phosphatase activity assay, the Co-IP experiment was carried out after Kp-10 treatment of RAW264.7 cells for 20 min, followed by lysis and incubation with the Gpr54 antibody. The assay was performed according to the phosphatase assay kit (Sigma-Aldrich,17-313). For the DUSP18 phosphatase activity assay, His-DUSP18 and His-DUSP18 (C104S) were purified from E Coli, and His-Src was purified from Sf9 insect cells. His-DUSP18 and His-DUSP18 (C104S) were incubated with His-Src in 1x phosphatase buffer (20 mM HEPES, 20 mM MgCl2, 0.03% β-mercaptoethanol)[51] for 30 min at 30 °C with gentle shaking. […]

Cn1nccc1Nc1nccc(-c2cc3c(s2)C(C)(C)N(CCN2CCOCC2)C3=O)n1 [LY3214996]
effect on Kp-10 induced interaction of GPR54 with Src (GPR54 / Src interaction): not by the inhibitors | expression of Dusp18 (mRNA) (Dusp18 expression): inhibited

CN1CCN(CCOc2cc(OC3CCOCC3)c3c(Nc4c(Cl)ccc5c4OCO5)ncnc3c2)CC1 [Saracatinib]
effect on Kp-10 induced interaction of GPR54 with DUSP18 [1]: obvioulsly dampened | effect on Kp-10 induced interaction of Src with DUSP18 (Src / DUSP18 interaction; 293T, inhibitor 1 h (U73122 10 µM, Staurosporine 0.25 µM, LY3214996 10 µM, KN-93 10 µM, Saracatinib 10 µM), then 10 nM Kp-10 20 min): obvioulsly dampened | effect on Kp-10 induced interaction of GPR54 with Src (GPR54 / Src interaction): obvioulsly dampened

CN[C@@H]1C[C@H]2O[C@@](C)([C@@H]1OC)n1c3ccccc3c3c4c(c5c6ccccc6n2c5c31)C(=O)NC4 [Staurosporine]
effect on Kp-10 induced interaction of GPR54 with Src (GPR54 / Src interaction): not by the inhibitors | expression of Dusp18 (mRNA) (Dusp18 expression): inhibited

GPR54 CT: C terminus of human GPR54 (H329- L398)
interaction with SH3 domains (SH3 domain of Src): interacted with the SH3 domain of Src most obviously

B1
Kd (His-DUSP18): 1800 nM

B2
Kd [2]: 5.9 nM

B3
interaction with Src by Co-IP (Src / DUSP18 interaction; anti-Flag IP, 293T cells transfected with HA-Src): eliminated the interaction with Src | dephosphorylation of Src (Y416) (Src (Y416)): had no activity
